In EP0626016B1, “[…] […]” (BRITISH TECHNOLOGY GROUP LIMITED, priority 1992, dated 1993):

Key:
HRP [1] = target: T1, HRP (Armoracia rusticana, UniProt P00433); experiment: Enhanced chemiluminescent anti-oxidant assay using PBBA (Example 6); type: biochemical, horseradish
T1 construct: purchased Sigma Chemical Co
T1 sequence (P00433 31-338): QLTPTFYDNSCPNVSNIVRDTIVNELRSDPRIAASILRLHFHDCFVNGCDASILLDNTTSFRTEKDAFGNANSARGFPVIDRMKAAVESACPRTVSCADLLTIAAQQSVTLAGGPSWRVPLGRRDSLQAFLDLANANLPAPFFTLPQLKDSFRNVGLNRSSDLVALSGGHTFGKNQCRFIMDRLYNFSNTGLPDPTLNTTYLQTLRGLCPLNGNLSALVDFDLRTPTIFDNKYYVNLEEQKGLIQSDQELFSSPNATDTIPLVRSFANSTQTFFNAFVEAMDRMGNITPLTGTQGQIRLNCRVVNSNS
Procedure: The luminol-peroxide reagent (100µl), PBBA (40µl, 1:100 dilution of 1 mg/ml) and HRP (10µl, 1:50,000 dilution of 1mg/ml stock) were mixed together and the light emission measured for 25 minutes. A sample of human serum (2µl, 1:10 dilution in 0.1 mol/l Tris buffer, pH 8.6) was added and the light emission measured for a further 75 minutes.

HRP [2] = target: T1, HRP; experiment: Effect of fixed PBBA on light output with varying amounts of HRP (Example 1, part 2); type: biochemical, horseradish; settings: for Signal (with PBBA): 40µl of PBBA 0.01mg/ml, after 5 minutes; for Signal: Background ratio: with PBBA
Procedure: The above experiment was repeated this time keeping the amount of PBBA enhancer fixed and varying the amount of HRP. The reagents used were 100µl of luminol-hydrogen peroxide, either (a) 40µl of PBBA (0.01mg/ml in 0.lmol/l Tris buffer, pH 8.6) or (b) as a control, 40µl of Tris buffer (0.1mol/l, pH 8.6) and various amounts of HRP (range 5µl to 40µl of 1:50,000 dilution of a lmg/ml stock solution).
The reagents were mixed and light output recorded after 5 minutes on a Berthold Biolumat LB9500C. […] An improved signal:background ratio is shown by comparing results with HRP present with the zero HRP results.

OB(O)c1ccc(Br)cc1 [PBBA, para-bromophenylboronic acid]
Light units (HRP [1]; Time 0 minutes, before serum): 5 | Light units (HRP [1]; Time 10 minutes, before serum): 16 | Light units (HRP [1]; Time 20 minutes, before serum): 68 | Light units (HRP [1]; Time 25 minutes, serum added): 88 | Light units (HRP [1]; Time 26 minutes, after human serum added): 3 | Light units (HRP [1]; Time 30 minutes, after human serum added): 3 | Light units (HRP [1]; Time 50 minutes, after human serum added): 5 | Light units (HRP [1]; Time 60 minutes, after human serum added): 15 | Light units (HRP [1]; Time 70 minutes, after human serum added): 49 | Light units (HRP [1]; Time 80 minutes, after human serum added): 60 | Light units (HRP [1]; Time 90 minutes, after human serum added): 81 | Light units (HRP [1]; Time 100 minutes, after human serum added): 90 | lag after which the light emission returns to its original level (HRP [1]; after addition of human serum (2µl, 1:10 dilution)): 34 min | Signal (with PBBA) (HRP [2]; HRP 0 pg): 9,125 | Signal (with PBBA) (HRP [2]; HRP 100 pg): 15,861 | Signal: Background ratio (HRP [2]; HRP 100 pg): 1.7 | Signal (with PBBA) (HRP [2]; HRP 200 pg): 22,895 | Signal: Background ratio (HRP [2]; HRP 200 pg): 2.5 | Signal (with PBBA) (HRP [2]; HRP 400 pg): 38,495 | Signal: Background ratio (HRP [2]; HRP 400 pg): 4.2 | Signal (with PBBA) (HRP [2]; HRP 600 pg): 61,491 | Signal: Background ratio (HRP [2]; HRP 600 pg): 6.7 | Signal (with PBBA) (HRP [2]; HRP 800 pg): 105,972 | Signal: Background ratio (HRP [2]; HRP 800 pg): 11.6 | light output of the chemiluminescent reaction (HRP [2]; at all concentrations tested, result in words): increased the light output
